This is an account of results in a melting point compilation (Tetko et al.; mined from patent text by program, amines drawn as free bases though some values may be those of a salt).

Each structure is given as a SMILES string.

For orientation: melting point means the temperature, or range, at which the solid turns liquid.

In turn, `CCOc1cc(NCCSCc2[nH]cnc2C)nc2ccccc12` registered a melting point of 152 to 154 °C.
To `O=C1C=C(c2c[nH]c3ccc(O)cc23)C(=O)N1` belongs 292 to 298 °C; to `O=C(N[C@H]1CC[C@H](CCN2CCC(c3cccc4c3CCO4)CC2)CC1)c1ccc(C(F)(F)F)cc1`, 228 °C.
In turn, `CCc1c(-c2ccc(O)cc2)c2c(COCCCCCN3CCCCC3)cc3c(O)ccc1n32` gave a melting point of 120 to 121 °C.
`O=C(O)CCC1CCC(=O)N1` (centres undefined) had a melting point of 125 to 127 °C.
`CCCn1nc(OCc2ccccc2)cc1/C=C/C(=O)OCC`: the melting point was 58 to 59 °C.
As for `CCOC(=O)c1c(CC)nn2c(-c3cccnc3)ccnc12`, the melting point lay in the range of 119 to 120 °C.
`Cc1cc(C(=O)O)ccc1OCCNC(=O)C1Cc2ccccc2N1S(=O)(=O)c1ccc(-c2cccc(C(F)(F)F)c2)cc1` (centres undefined): the melting point is 102 to 108 °C.
The compound `CNC(=S)Nc1ccc(Cc2cc(C)c(C(=O)c3ccc(Cl)cc3)n2C)nc1` had a melting point of 135 °C.
To `COC(=O)c1cc(S(C)(=O)=O)ccc1OCC(C)C` belongs 76 to 81 °C; to `CC(=O)OCC1OC([NH+]2C=NC(C#N)=C2[O-])C(OC(C)=O)C1OC(C)=O` (centres undefined), 160 to 161 °C; to `Cc1cc(C)c(Nc2nc(C)ncc2S(=O)(=O)c2ccc(-c3cccnc3)cc2)c(C)c1`, 190 to 192 °C.
In turn, `CC(=CN1CCC(CCCC2CCN(C=C(C)c3ccccc3)CC2)CC1)c1ccccc1` yielded a melting point of 120 °C.
For the compound `N#Cc1ccc(N(Cc2ccc(OCc3ccccc3)cc2)n2cnnc2)cc1-c1ccco1`, the melting point fell in the range of 181 to 182 °C.
To `CC(C)O[Si](C)(CCl)c1ccc(-c2ccccc2)cc1` (centres undefined) belongs 35 to 38 °C; to `CC1(C)C(=O)NC(c2ccc(NC(=O)CCl)cc2)c2ccccc21` (centres undefined), 218 to 219 °C; to `COC(=O)N(C)C1CN(C(=O)Nc2ccc(OC(F)(F)F)cc2)NC1c1ccc(Cl)cc1` (centres undefined), 179 to 181 °C.
To `O=C(Nc1ccc(Br)cn1)C1=C(O)c2ccccc2N(c2ccccc2)C1` belongs 153 to 154 °C.
The figure for `O=S(=O)(c1ccc(Cl)cc1)C(C/C=C\CO)c1cc(F)ccc1F` (centres undefined) is 60 to 63 °C.
In the case of `Fc1cccc(F)c1COCc1nc2ccccc2n1Cc1c(F)cccc1F`, the melting point worked out at 109 °C.
The figure for `O=C(Nc1ccc(C(=O)Nc2nnc(-c3cc(Cl)cc(Cl)c3O)s2)cc1)c1ccccc1` is 301 °C; for `CC(=O)OC1CSC(Oc2cccnc2-c2cccs2)C(OC(C)=O)C1OC(C)=O` (centres undefined) it is 166 °C.
To `CN(C)C(CN1CCN(c2ccc(F)cc2)CC1)CN1c2cccc3cccc(c23)S1(=O)=O` (centres undefined) belongs 118 °C; to `CCOC(=O)c1c(N2CCN(C(=O)c3cccs3)CC2)c2cccnc2n(C)c1=O`, 164 °C.
To `OCCc1ccccc1Nc1ncc2c(n1)-c1ccccc1[C@H](c1ccccc1F)C2` belongs 162 to 163 °C; to `CNc1ccc(-c2[nH]cnc2-c2cc(OC)cc(OC)c2)cc1F`, 182 to 184 °C; to `BrCc1cc2ccsc2c2ccccc12`, 99 to 101 °C.
Compound `O=C1c2cc(OCc3ccc4cc(F)ccc4n3)ccc2OCC1Oc1cccnc1` (centres undefined) had a melting point of 188 °C.
Consider `O=C(NCc1ccccn1)c1ccc(C2=NOC(c3cc(Cl)cc(Cl)c3)(C(F)(F)F)C2)cc1C(F)(F)F` (centres undefined), for which the melting point was in the range of 69 to 70 °C.
The figure for `Cc1nc(CC(C)C)c(C#N)c(-c2ccc(Cl)cc2)c1C(=O)OC(C)(C)C` is 70 to 72 °C; for `CC(C)(COc1ccc(Cl)cc1)C(=O)C(CC1CCCCC1)n1cncn1` (centres undefined) it is 58 to 60 °C; for `COc1cc2c(cc1OC)C1Cc3ccccc3CC(=O)N1CC2` (centres undefined) it is 195 to 197 °C.
For `CCOC(=O)NNC(=O)CC(F)=C(F)F`, the melting point stood at 110 °C.
To `COc1cc(C#Cc2cnc(N)nc2N)cc(OC)c1OC` belongs 202 to 204 °C.
